pIC50: −log10 of the molar value.
Experiments:
rat insulinoma cells = conditions: cited from earlier work
monocyte migration = conditions: Chen 2001; cited from earlier work
p38 MAPK = molecular target: T1, p38 MAPK (Homo sapiens, UniProt Q16539); experiment: phosphorylation assay of p38 MAPK activity (see Kumar); assay type: biochemical; conditions: assay similar to the phosphorylation assay (Kumar); read-out: p38 MAPK activity, relative IC50 value
T1 construct: made in house; host or cells: cells (e.g., HeLa) transfected with kinase DNA, stimulated, kinase immunoprecipitated from lysate
Experimental: After immunoprecipitation of cell lysates, equal aliquots of immune complexes of the kinases are pre-incubated for an adequate time with a specific concentration of the potential inhibitor followed by addition of kinase substrate buffer mix containing labeled ATP and GST-ATF2 or MBP. […] Phosphorylated substrate is resolved through SDS-PAGE and visualized and quantitated in a phosphorimager. […] Res. Commun.

T1 sequence (Q16539 whole entry): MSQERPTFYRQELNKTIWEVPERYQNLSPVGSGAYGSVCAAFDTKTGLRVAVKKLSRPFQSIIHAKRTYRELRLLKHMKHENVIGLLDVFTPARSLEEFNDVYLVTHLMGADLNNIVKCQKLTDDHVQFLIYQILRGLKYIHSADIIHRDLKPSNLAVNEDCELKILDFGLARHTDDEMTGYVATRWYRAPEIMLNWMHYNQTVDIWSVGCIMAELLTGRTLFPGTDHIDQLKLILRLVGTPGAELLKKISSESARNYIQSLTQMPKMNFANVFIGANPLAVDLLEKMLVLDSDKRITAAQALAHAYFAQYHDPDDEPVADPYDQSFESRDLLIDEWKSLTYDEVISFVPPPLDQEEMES

| pIC50 (p38 MAPK) | SMILES | p38-dependent enhancement of cytokines expression by hsp70 (rat insulinoma cells) | Monocyte migration (monocyte migration) |
| --- | --- | --- | --- |
|  | C[S+]([O-])c1ccc(-c2nc(-c3ccncc3)c(-c3ccc(F)cc3)[nH]2)cc1 (stereo not drawn) [SB203580] | blocks this activity | blockade |
| > 8.30 | COc1cc2c(cc1C(=O)N1CC(C)N(Cc3ccc(F)cc3)CC1C)c(C(=O)C(=O)N(C)C)cn2C (stereo not drawn) [compound 15] |  |  |
